“Also recorded” adds a separate entry of the source. Where a SMILES comes first, the peptide text is derived from it. The star is where a group is joined. Cbz = O=C(OCc1ccccc1)*
What was measured:
HLA-E = assay: Immunoblot of non-canonical MHC class I HLA-E; type: cell-based, human; conditions: MB135iDUX4 cells
Protocol: (§1) Protein samples were harvested in RIPA buffer [150 mM NaCl, 1% NP-40, 0.5% Na-deocycholate, 1% SDS, 25 mM Tris-HCl pH7.4] supplemented with protease and phosphatase inhibitor tablets (Pierce), followed by sonication in Diagenode Bioruptor. Lysate was cleared by centrifugation at 16000×g and quantified using a Pierce BCA assay (Thermo Fisher Scientific). Samples were run on NuPAGE precast polyacrylamide gels (Invitrogen) and transferred to PVDF membrane. Membranes were blocked in PBS containing 0.1% Tween-20 and 5% non-fat dry milk before overnight incubation at 4° C. with primary antibodies (see resource table for a list of antibodies used in this study). Membranes were incubated with horseradish peroxidase-conjugated secondary antibodies for 1 hour at room temperature and SuperSignal chemiluminescent substrate (Thermo Scientific) was used for detection on film with a Mini-medical 90 processor. Membranes were stripped with Restore Western Blot Stripping Buffer (Pierce).

[1] = system: MHC-I, PSMB8, PSMB9, and PSMB10; assay: Immunoblot of IFNG-induced MHC-I and immunoproteasome protein in MB135 myoblasts treated with inhibitors; type: cell-based, human; conditions: MB135 myoblasts without DUX4 induction, agent then IFNG 16 h; 4EGI-1 at 50 uM
Protocol: To test if mTOR inactivation was sufficient to block MHC-I and immunoproteasome protein levels in the absence of DUX4, parental MB135 myoblasts were treated with mTOR inhibitors everolimus or Torin2. Everolimus is a second-generation rapamycin analog with binding specificity for mTORC1. […] To further validate the role of 4EBP1 in blocking MHC-I and immunoproteasome protein expression, MB135 cells were treated with 4EGI-1, a small molecule that pharmacologically mimics 4EBP function and inhibits eIF4E.
as §1

[2] = system: MHC-I, PSMB8, PSMB9, and PSMB10; assay: as above; type: cell-based, human; conditions: MB135iDUX4 cells, data not shown
[3] = system: interferon-stimulated genes IFIH1, ISG20, CXCL9, and CD74; assay: IFNG induction of interferon-stimulated genes, RT-qPCR in MB135 cells with doxycycline-inducible transgenes; type: cell-based, human; conditions: MB135 cells, doxycycline-induced transgene, continuous protocol, IFNG 16 h
Protocol: (§2) All myoblast experiments were conducted in immortalized MB135 or MB200 myoblast cell lines (isolated from a control or FSHD2 subject, respectively cultured in Ham's F-10 Nutrient Mix (Gibco) supplemented with 15% fetal bovine serum (Hyclone), 100 U/100 μg/ml penicillin/streptomycin (Gibco), 1 μM dexamethasone (Sigma), and 10 ng/ml recombinant human basic fibroblast growth factor (PeproTech). To differentiate the myoblasts to myotubes, media was changed to DMEM supplemented with 10 μg/ml insulin (Sigma) and 10 μg/ml transferrin (Sigma). Cell lines containing doxycycline-inducible transgenes were additionally cultured with 2 μg/mL puromycin (Sigma). Transgenes were induced with 1 μg/mL of doxycycline (Sigma) for 4 hours prior to other treatments for a total of 20 hrs. The Kitra-SRS cells (RRID:CVCL_YI69) were provided by Dr. H. Otani and Osaka University (Nakai et al., 2019) and were cultured in DMEM supplemented with 10% fetal bovine serum (Hyclone) and 100 U/100 μg/ml penicillin/streptomycin (Gibco). Biological replicates consisted of independent but parallel experiments, such as simultaneously stimulating three cell culture plates with IFNγ. Technical replicates consisted of repeat measurements of the same biological sample, such as loading the same biological sample in triplicate for analysis by RT-qPCR.
(§3) Myoblasts were transfected with either (final concentrations) 10 μM 2′,3′-cGAMP (Sigma Aldrich), 2 μg/mL poly(I:C) (Invitrogen), or 1 μg/mL 3′ppp-dsRNA RIG-I ligand (Dan Stetson Lab, UW) using Lipofectamine 2000 according to manufacturer's protocol, or were stimulated with 1000U IFNβ (PeproTech) or 200 ng/ml IFNγ (R+D Systems) by addition directly to cell culture medium. After 16 hours of immune stimulation, RNA was collected from cells using the NucleoSpin RNA Kit (Macherey-Nagel) according to manufacturer's instructions. RNA samples were quantified by nanodrop and 1 μg of RNA per sample was treated with DNase I Amplification Grade (Thermo Fisher), and then synthesized into cDNA using the Superscript IV First-Strand Synthesis System, including oligo dT primers (Invitrogen). qPCR was run in 384-well plates on an Applied Biosystems QuantStudio 6 Flex Real-Time PCR System (ABI) and analyzed in Microsoft Excel.

[4] = system: de novo protein synthesis; assay: [35S]-methionine/cysteine metabolic labeling of nascent protein synthesis; type: cell-based; conditions: human myoblasts, 20-92 h after 4 h doxycycline pulse
Protocol: Cells were treated with and without a 4-hour pulse of doxycycline. Eight hours prior to harvest, cells were incubated in DMEM depleted for methionine and cysteine (Gibco) supplemented with 90 microcurie 35S-methionine/cysteine (Perkin Elmer) and 50 ng/ml […] (R&D Systems). Protein samples were harvested in RIPA buffer [150 mM NaCl, 1% NP-40, 0.5% Na-deocycholate, 1% SDS, 25 mM Tris-HCl pH7.4] supplemented with protease and phosphatase inhibitor tablets (Pierce), followed by sonication in Diagenode Bioruptor. Lysate was cleared by centrifugation at 16000×g and quantified using a Pierce BCA assay (Thermo Scientific). Samples were run on NuPAGE precast polyacrylamide gels (Invitrogen). Gels were stained with InstantBlue Coomassie (Abcam) following manufacturer protocol, placed on whatman paper, wrapped in plastic wrap, and dried. Gels were exposed to phosphor screen, imaged on Typhoon Trio imager, and analyzed with ImageQuant.

[5] = system: MHC class I proteins (HLA-A/B/C); assay: Immunoblot of IFNG-induced MHC class I protein, continuous or pulsed protocol, MB135 myoblasts; type: cell-based, human; conditions: MB135 cells; for suppression of IFNG-induced MHC class I protein, pulsed protocol: 4 h doxycycline pulse, IFNG added later for 16 h; for suppression of IFNG-induced MHC class I protein, continuous protocol: doxycycline 20 h, IFNG last 16 h
Protocol: (§4) In the “continuous” protocol (similar to the experiments shown in the prior FIGS. 1, 2, 4, 5, and 6), doxycycline is added to induce DUX4 expression at time 0 and four hours later IFNG is added for an additional 16 hours, resulting in 20 hours of continuous DUX4 induction with the last 16 hrs exposed to IFNG.
(§5) In the “pulsed” protocol, doxycycline is added at time 0 to induce DUX4 expression, but after four hours the media is changed to remove the doxycycline, resulting in a pulse of DUX4 mRNA and protein sufficient to induce DUX4 target gene expression (see Resnick et al., Cell Rep. 2019 Nov. 12; 29(7):1812-1820.e5). IFNG is added at 28 hours for a period of 16 hours prior to harvesting the cells. […] This difference is not likely to be due to different amounts of the DUX4 and mutant DUX4 proteins because at the time of harvest both DUX4 and the F67A mutant DUX4 protein levels have declined to similarly low amounts relative to the continuous protocol, but could be due to the activation of DUX4 target genes by the full-length DUX4 since the H3.X/Y proteins show persistent expression in the pulsed protocol.
as §1

ZSCAN4 = assay: Activation of DUX4 target gene ZSCAN4, RT-qPCR; type: cell-based, human; conditions: MB135 cells ± doxycycline
Protocol: as §2, §3

ISG induction by IFNG = assay: RNA-seq of IFNG-induced genes in MB135 cells; type: cell-based, human; conditions: genes induced by IFNG (log 2 fold-change >3), doxycycline + IFNG
Protocol: RNA was extracted as described above from untreated, doxycycline-treated, IFNγ-treated, or doxycycline- and IFNγ-treated samples. RNA was submitted to the Fred Hutchinson Cancer Research Center Genomics Core for library preparation using the TruSeq3 Stranded mRNA kit (Illumina) followed by size and quality analysis by Tapestation (Agilent). Libraries were sequenced on a NextSeq P2-100 (Illumina).
Sequencing analysis was performed using R version 4.0.3 (R Core Team, 2020). Sequencing reads were trimmed using Trimmomatic (version 0.39) (Bolger et al., 2014, Trimmomatic: a flexible trimmer for Illumina sequence data. Bioinformatics 30, 2114-2120), and aligned to the Homo sapiens GRCh38 reference genome with the Rsubread aligner (Liao et al., 2019, The R package Rsubread is easier, faster, cheaper and better for alignment and quantification of RNA sequencing reads. Nucleic Acids Res 47, e47). Gene counts were analyzed using featureCounts (v2.0.1) (Liao et al., 2019, supra) and the Gencode v35 annotation file. Normalization and differential expression analysis were done with DESeq2 (v1.26.0) (Love et al., 2014, Moderated estimation of fold change and dispersion for RNA-seq data with DESeq2. Genome Biol 15, 550).

H3.X/Y = assay: Immunoblot of DUX4 target H3.X/Y proteins; type: cell-based, human; conditions: MB135 cells, continuous or pulsed protocol
Protocol: as §1

[6] = system: immunoproteasome subunits PSMB8, PSMB9, and PSMB10; assay: Immunoblot of IFNG-induced immunoproteasome subunits; type: cell-based, human; conditions: MB135 cells; for suppression of IFNG-induced immunoproteasome subunit protein, pulsed protocol: 4 h doxycycline pulse, later IFNG 16 h; for suppression of IFNG-induced immunoproteasome subunit protein, continuous protocol: doxycycline 20 h, IFNG last 16 h
Protocol: as §4, §5, §1

Compound | effect on IFNG-induced HLA-E protein (HLA-E) | effect on IFNG-induced MHC-I and immunoproteasome protein in the absence of DUX4 [1] | rescue of post-transcriptional suppression after a pulse of DUX4 [2] | suppression of IFNG induction of ISGs (IFIH1, ISG20, CXCL9, CD74) [3] | suppression of IFNG induction of ISGs (IFIH1, ISG20, CXCL9, CD74) ([3]; listed as DUX4-F67A) | nascent protein synthesis by 35S labeling [4] | suppression of IFNG-induced MHC class I protein, pulsed protocol ([5]; listed as DUX4(F67A)) | suppression of IFNG-induced MHC class I protein, pulsed protocol ([5]; listed as DUX4-F67A) | suppression of IFNG-induced MHC class I protein, pulsed protocol ([5]; listed as F67A mutant) | suppression of IFNG-induced MHC class I protein, continuous protocol ([5]; listed as DUX4(F67A)) | suppression of IFNG-induced MHC class I protein, continuous protocol ([5]; listed as DUX4-F67A) | transcriptional activation of DUX4 target gene ZSCAN4 (ZSCAN4) | transcriptional activation of DUX4 target gene ZSCAN4 (ZSCAN4; listed as DUX4-F67A) | IFNG-induced genes whose induction was suppressed more than 2-fold (percent) (ISG induction by IFNG) [%] | IFNG-induced genes whose induction was suppressed more than 4-fold (percent) (ISG induction by IFNG) [%] | induction of DUX4 target H3.X/Y proteins (H3.X/Y) | suppression of IFNG-induced immunoproteasome subunit protein, pulsed protocol ([6]; listed as DUX4(F67A)) | suppression of IFNG-induced immunoproteasome subunit protein, pulsed protocol ([6]; listed as DUX4 F67A) | suppression of IFNG-induced immunoproteasome subunit protein, continuous protocol ([6]; listed as DUX4(F67A)) | suppression of IFNG-induced immunoproteasome subunit protein, continuous protocol ([6]; listed as DUX4 F67A)
CC(C)C[C@@H](C=O)NC(=O)[C@H](CC(C)C)NC(=O)[C@H](CC(C)C)NC(=O)OCc1ccccc1 [MG132] (Cbz-Leu-Leu-Leu-aldehyde) | stable expression of HLA-E protein | MHC class I induction, but not HLA-E is blocked | did not rescue post-transcriptional suppression |  |  |  |  |  |  |  |  |  |  |  |  |  |  |  |  | 
CO/C1=C\C(C)=C\[C@@H](C)[C@@H](O)[C@@H](C)C/C(C)=C/C=C/[C@H](OC)[C@@H]([C@@H](C)[C@@H](O)[C@H](C)[C@@]2(O)C[C@@H](O)[C@H](C)[C@@H](C(C)C)O2)OC1=O [Bafilomycin] |  |  | did not rescue post-transcriptional suppression |  |  |  |  |  |  |  |  |  |  |  |  |  |  |  |  | 
iDUX4-F67A: DUX4 with phenylalanine to alanine mutation in first homeodomain preventing DNA binding, SEQ ID NOS: 6-7 |  |  |  | sufficient to block IFNG-induced ISG expression; also recorded: still suppressed ISG induction by IFNG | fully suppresses the ISG response to IFNG | did not suppress protein translation; also recorded: no significant change | protein levels were completely rescued | does not suppress MHC class I in the pulse protocol | does not suppress MHC class I in the pulsed protocol | suppressed IFNG-induced MHC-I and the immunoproteasome expression | suppress the IFNG induction of MHC class I expression; also recorded: inhibits MHC class I proteins in only the continuous protocol | did not activate ZSCAN4 | prevents the transcriptional activation of DUX4 regulated genes | 70 | 41 | does not induce expression of the DUX4-regulated H3.X/Y | protein levels were completely rescued; also recorded: neither suppression of PSMB9 or altered 4EBP1 phosphorylation was observed | does not inhibit at all in the pulsed protocol | suppressed IFNG-induced MHC-I and the immunoproteasome expression | only partially inhibits the IFNG induction of PSMB9 and PSMB10 in the continuous protocol
